Results on one molecule are retold here after patent US20170027967A1, “PHARMACEUTICAL FORMULATIONS” (priority 2015, published 2017).

The conditions of the data set: 40° C./75% RH open, 60° C. closed.

Read-outs that look alike come from different tables or passages of the source.

Experimental: Studies were conducted to assess the stability of tenofovir alafenamide hemifumarate in the presence of (a) emtricitabine, and (b) emtricitabine and rilpivirine HCl.

On to `CC(C)OC(=O)[C@H](C)N[P@](=O)(CO[C@H](C)Cn1cnc2c(N)ncnc21)Oc1ccccc1` [tenofovir alafenamide hemifumarate], for which the “rate of degradation of tenofovir alafenamide hemifumarate” value is reported as “further increased” (in the presence of both emtricitabine and rilpivirine HCl); “increased” (in the presence of emtricitabine).
